Data on 29 compounds can be found in patent US6620828B2, “Thiazole compounds and pharmaceutical compositions for inhibiting protein kinases and methods for their use” (Agouron Pharmaceuticals, Inc., priority 1999, dated 2003).

What all share (assay type): biochemical
The target in experiment [1] is T1, CDK4/Cyclin D3 complex (Homo sapiens, UniProt P11802).
T1 construct: made in house; host or cells: insect cells co-infected with baculovirus vectors
Nature of the experiment: CDK4/Cyclin D assay. Particulars: 1.0 μM; combinatorial library compounds. The gist of the method: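 Insect-cell-expressed CDK4/cyclin D3 (50 nM) phosphorylating His-tagged Rb fragment (residues 386-928) with 25 μM [^32P]ATP in HEPES pH 7.4, MgCl2, 2% DMSO; 20 min at 30 °C, EDTA stop. Filter-captured 32P by phosphorimager; apparent Ki from competitive or tight-binding inhibition fits.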

Experiment [2] concerns the target T2, FL-CHK1 (Homo sapiens, UniProt O14757).
T2 construct: C-terminally His-tagged full-length human CHK1 (FL-CHK1); 6xHis (C); made in house; host or cells: baculovirus/insect cells
T2 sequence (O14757 1-476): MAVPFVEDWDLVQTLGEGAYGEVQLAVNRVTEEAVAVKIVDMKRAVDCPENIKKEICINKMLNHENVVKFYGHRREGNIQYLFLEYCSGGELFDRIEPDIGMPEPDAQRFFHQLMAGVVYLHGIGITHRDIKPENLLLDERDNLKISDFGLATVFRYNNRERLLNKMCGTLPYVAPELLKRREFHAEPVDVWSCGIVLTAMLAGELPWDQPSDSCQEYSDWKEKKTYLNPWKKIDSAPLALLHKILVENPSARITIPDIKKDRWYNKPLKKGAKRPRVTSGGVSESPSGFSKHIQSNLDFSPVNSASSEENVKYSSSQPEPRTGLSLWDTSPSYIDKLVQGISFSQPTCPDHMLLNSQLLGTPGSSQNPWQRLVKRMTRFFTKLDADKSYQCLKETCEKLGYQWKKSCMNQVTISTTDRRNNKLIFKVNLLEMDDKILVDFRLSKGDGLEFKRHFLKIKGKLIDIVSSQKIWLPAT
As to the kind of experiment: CHK1 assay. To be noted: 20 μM; combinatorial library compounds. The method, boiled down: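 Full-length human CHK1 with C-terminal 6×His tag, made in baculovirus/insect cells, 10 nM, phosphorylating 0.125 mM Syntide-2 with 0.15 mM ATP in 50 mM Tris pH 7.5, 25 mM MgCl2, 400 mM NaCl. PK/LDH-coupled NADH oxidation read at 340 nm. Ki from initial rates over varied compound concentrations.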

Experiment [3] has as its target T3, phosphorylated VEGF-R2Δ50 (FLVK-P) (Homo sapiens, UniProt P35968, DEL940-989/E990V).
T3 construct: VEGF-R2Δ50 contains residues 806-939 and 990-1171; made in house; host or cells: baculovirus/insect cells
Nature of the experiment: VEGF-R2 coupled spectrophotometric (FLVK-P) assay. Particulars: read-out: VEGF % inhibition at 20 μM, 20 μM; combinatorial library compounds. The gist of the method: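 Baculovirus-expressed human VEGF-R2Δ50 (residues 806-939/990-1171, E990V) was autophosphorylated with 3 mM ATP, 40 mM MgCl2 for 2 h at 4° C. ADP formation was coupled via PK/LDH to NADH oxidation, read at 340 nm, with 5.1 mM poly(E4Y1), 1 mM ATP, 25 mM MgCl2, Hepes pH 7.5. Ki came from activity across compound concentrations.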

Experiment [4] concerns the target CDK2/Cyclin A complex (Homo sapiens, UniProt P24941). Nature of the experiment: CDK2/Cyclin A assay. To be noted: 1.0 μM; combinatorial library compounds. The method, boiled down: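 Radiometric assay: 150 nM CDK2/cyclin A (insect-cell CDK2, truncated cyclin A) phosphorylates His-tagged Rb fragment (residues 386-928) with 25 μM ATP plus [32P]ATP, pH 7.4 HEPES, 2% DMSO, 30 °C for 20 min. Filter-captured product counted by phosphorimager; apparent Ki from competitive or tight-binding inhibition fits.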

T3 sequence (P35968 with tags, fused parts or gaps DEL940-989/E990V limits assumed): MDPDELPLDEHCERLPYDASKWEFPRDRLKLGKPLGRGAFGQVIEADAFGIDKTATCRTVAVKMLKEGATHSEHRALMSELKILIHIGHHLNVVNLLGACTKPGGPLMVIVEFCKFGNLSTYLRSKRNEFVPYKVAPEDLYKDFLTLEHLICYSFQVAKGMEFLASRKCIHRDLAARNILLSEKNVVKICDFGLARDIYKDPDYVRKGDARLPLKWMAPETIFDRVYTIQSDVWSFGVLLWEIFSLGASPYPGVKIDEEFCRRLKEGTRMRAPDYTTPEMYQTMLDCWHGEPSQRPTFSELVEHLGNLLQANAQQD
T1 sequence (P11802 whole entry): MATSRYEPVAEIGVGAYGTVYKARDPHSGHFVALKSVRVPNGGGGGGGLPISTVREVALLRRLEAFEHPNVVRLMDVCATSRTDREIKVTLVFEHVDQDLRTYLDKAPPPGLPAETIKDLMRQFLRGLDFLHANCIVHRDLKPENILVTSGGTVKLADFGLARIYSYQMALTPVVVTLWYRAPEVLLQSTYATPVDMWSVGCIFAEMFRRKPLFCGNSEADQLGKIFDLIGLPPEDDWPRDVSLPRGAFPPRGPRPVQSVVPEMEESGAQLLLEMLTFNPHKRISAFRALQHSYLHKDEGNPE
T1 sequence (P30281 whole entry partner): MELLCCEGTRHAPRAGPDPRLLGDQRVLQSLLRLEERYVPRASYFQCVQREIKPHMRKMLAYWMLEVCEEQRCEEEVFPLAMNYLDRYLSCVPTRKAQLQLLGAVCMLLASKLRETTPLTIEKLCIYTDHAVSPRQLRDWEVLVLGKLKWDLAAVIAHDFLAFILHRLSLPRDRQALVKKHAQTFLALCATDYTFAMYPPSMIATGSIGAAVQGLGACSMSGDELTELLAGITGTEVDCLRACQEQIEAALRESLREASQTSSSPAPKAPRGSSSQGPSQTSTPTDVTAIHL

`Nc1nc(Nc2ccc(S(N)(=O)=O)cc2)sc1-c1nc(-c2ccc3c(c2)CCC(=O)N3)cs1`: the inhibition (usually the relative decrease from the control value, in per cent) at 1 µM in experiment [1] was determined as 42.2%; in experiment [4] it was 56.6%. The results for the inhibition at 20 µM in experiment [2] and in experiment [3] were 15.3% and 7%, respectively.
Turning to `CN(C)c1ccc(Nc2nc(N)c(-c3nc(-c4c(Cl)c(Cl)nc(Cl)c4Cl)cs3)s2)cc1`, the figures for the inhibition at 1 µM in experiment [1] and in experiment [4] were 64.4% and 33.3%, respectively. Moreover, the results for the inhibition at 20 µM in experiment [2] and in experiment [3] were 41.4% and 35%, respectively.
The corresponding values for `Nc1nc(Nc2ccc(S(N)(=O)=O)cc2)sc1-c1nc(-c2ccc(F)cc2)cs1` [drawing 409] are 61.2%, 74.7%, 33.7% and 43%.
On to `COc1ccc2nc(-c3ccccc3)c(-c3csc(-c4sc(Nc5ccc(C(C)C)cc5)nc4N)n3)cc2c1`, for which the inhibition at 1 µM in experiment [1] amounted to 85.1%; in experiment [4], 26%. In addition, the inhibition at 20 µM in experiment [2] worked out at 14.1%; in experiment [3] it was 15%.
Turning to `CC(C)(C)c1cc(-c2csc(-c3sc(Nc4ccc(S(N)(=O)=O)cc4)nc3N)n2)cc(C(C)(C)C)c1O`, the inhibition at 1 µM in experiment [1] was found to be 17%; in experiment [4], 25%. The inhibition at 20 µM was 17.5% in experiment [2] and -9% in experiment [3].
The corresponding values for `Nc1nc(Nc2ccc(S(N)(=O)=O)cc2)sc1-c1nc(-c2ccc[nH]2)cs1` are 39.7%, 14.6%, 13.6% and 13%.
Turning to `Cc1c(-c2csc(-c3sc(Nc4ccc(C(C)C)cc4)nc3N)n2)sc2ccccc12`, the results for the inhibition at 1 µM in experiment [1] and in experiment [4] were 2.4% and 4%, respectively. Moreover, the inhibition at 20 µM in experiment [2] is -4.7%; in experiment [3], 5%.
Turning to `CC(C)c1ccc(Nc2nc(N)c(-c3nc(-c4cc(C(=O)C(Cl)(Cl)Cl)n(C)c4)cs3)s2)cc1`, the inhibition at 1 µM in experiment [1] stood at 37.8%; in experiment [4] it was 10.1%. The figures for the inhibition at 20 µM in experiment [2] and in experiment [3] were 0.7% and -3%, respectively.
With `CN(C)c1ccc(Nc2nc(N)c(-c3nc(-c4ccc(Cl)c([N+](=O)[O-])c4)cs3)s2)cc1`, the figures for the inhibition at 1 µM in experiment [1] and in experiment [4] were 59.8% and 4.1%, respectively. The inhibition at 20 µM in experiment [2] is 16%; in experiment [3] it was -2%.
For the compound `CC(C)c1ccc(Nc2nc(N)c(-c3nc(-c4ccc(Cl)c([N+](=O)[O-])c4)cs3)s2)cc1`, the figures for the inhibition at 1 µM in experiment [1] and in experiment [4] were 71.5% and 14.2%, respectively. In addition, the inhibition at 20 µM amounted to 23.5% in experiment [2] and 7% in experiment [3].
With `COc1cc(OC)c(-c2csc(-c3sc(Nc4ccc(N(C)C)cc4)nc3N)n2)c(O)c1Cl`, the inhibition at 1 µM in experiment [1] is 69.3%; in experiment [4] it was 24.1%. Further, the figures for the inhibition at 20 µM in experiment [2] and in experiment [3] were 41.1% and 36%, respectively.
The corresponding values for `CN(C)c1ccc(Nc2nc(N)c(-c3nc(-c4ccc(CC(=O)O)s4)cs3)s2)cc1` are 69.4%, 6.3%, 38.1% and 28%.
The like results for `CN(C)c1ccc(Nc2nc(N)c(-c3nc(-c4ccccc4OC(=O)c4ccccc4)cs3)s2)cc1` were, in that order, 48.5%, 27.1%, 9.8% and 23%.
Consider `CN(C)c1ccc(Nc2nc(N)c(-c3nc(-c4ccc(O)cc4)cs3)s2)cc1`, for which the inhibition at 1 µM in experiment [1] was determined as 66.8%; in experiment [4] it was 26.6%. For the same compound, the inhibition at 20 µM in experiment [2] stood at 47.1%; in experiment [3] it was 46%.
Consider `CN(C)c1ccc(Nc2nc(N)c(-c3nc(-c4ccc([N+](=O)[O-])cc4)cs3)s2)cc1`, for which the values for the inhibition at 1 µM in experiment [1] and in experiment [4] were 50.4% and 22.1%, respectively. Besides, the inhibition at 20 µM was 17.8% in experiment [2] and 8% in experiment [3].
As for `N#Cc1ccc(-c2nc(-c3sc(Nc4ccc(S(N)(=O)=O)cc4)nc3N)cs2)cc1`, the values for the inhibition at 1 µM in experiment [1] and in experiment [4] were 16.3% and 13.3%, respectively. Further, the inhibition at 20 µM is 3.7% in experiment [2] and 13% in experiment [3].
As to `CC(C)c1ccc(Nc2nc(N)c(-c3nc(-c4csc5ccccc45)cs3)s2)cc1`, the inhibition at 1 µM stood at 72% in experiment [1] and 9.3% in experiment [4]. In addition, the figures for the inhibition at 20 µM in experiment [2] and in experiment [3] were -4.3% and 25%, respectively.
As to `CC(C)c1ccc(Nc2nc(N)c(-c3nc(-c4cc(-c5ccccc5)no4)cs3)s2)cc1`, the inhibition at 1 µM in experiment [1] was determined as 50.4%; in experiment [4] it was 2.4%. Besides, the inhibition at 20 µM is -4.7% in experiment [2] and 13% in experiment [3].
For the compound `Cc1cc(-c2csc(-c3sc(Nc4ccc(S(N)(=O)=O)cc4)nc3N)n2)cs1`, the inhibition at 1 µM in experiment [1] came to 59.6%; in experiment [4], 68.2%. Further, the inhibition at 20 µM is 26.6% in experiment [2] and 34% in experiment [3].
Take `CC(=O)Oc1ccccc1-c1csc(-c2sc(Nc3ccc(C(C)C)cc3)nc2N)n1`: the inhibition at 1 µM in experiment [1] was 44.3%; in experiment [4], 6.6%. Besides, the inhibition at 20 µM in experiment [2] was -12.8%; in experiment [3], 14%.
As for `COc1ccccc1-c1csc(-c2sc(Nc3ccc(C(C)C)cc3)nc2N)n1`, the inhibition at 1 µM in experiment [1] worked out at 53.3%; in experiment [4] it was 6.3%. In addition, the inhibition at 20 µM is 15.6% in experiment [2] and -13% in experiment [3].
As to `CC(C)c1ccc(Nc2nc(N)c(-c3nc(-c4c(Cl)cc(C(F)(F)F)cc4Cl)cs3)s2)cc1`, the inhibition at 1 µM in experiment [1] came out at 86.2%; in experiment [4] it was 26%. The inhibition at 20 µM was 14.8% in experiment [2] and 31% in experiment [3].
For the compound `COc1ccc(-c2csc(-c3sc(Nc4ccc(N(C)C)cc4)nc3N)n2)cc1` [drawing 525], in experiment [1], the “CDK4 % Inhibition at 1.0 μM” value was determined as 19.1%. The “CHK1 % Inhibition at 20 μM” value in experiment [2] was 2.7%. For the same compound, in experiment [3], the inhibition at 20 µM was found to be 13%. For the same compound, the “CDK2 % Inhibition at 1.0 μM” value in experiment [4] was 6.1%.
Turning to `CN(C)c1ccc(Nc2nc(N)c(-c3nc(-c4ccc(-c5ccc(Cl)cc5Cl)o4)cs3)s2)cc1`, the inhibition at 1 µM in experiment [1] was found to be 35.6%; in experiment [4], 17.7%. The inhibition at 20 µM in experiment [2] was -7.6%; in experiment [3], 5%.
As for `COc1ccc(-c2csc(-c3sc(Nc4ccc(N(C)C)cc4)nc3N)n2)c(OC)c1`, the values for the inhibition at 1 µM in experiment [1] and in experiment [4] were 35.4% and 6.7%, respectively. Also, the inhibition at 20 µM came out at 3.1% in experiment [2] and 1% in experiment [3].
Take `Cc1c(C)c(C)c(-c2csc(-c3sc(Nc4ccc(S(N)(=O)=O)cc4)nc3N)n2)c(C)c1C`: the inhibition at 1 µM worked out at 64.1% in experiment [1] and 77.2% in experiment [4]. Besides, the results for the inhibition at 20 µM in experiment [2] and in experiment [3] were 29% and 33%, respectively.
As to `CC(C)c1ccc(Nc2nc(N)c(-c3nc(-c4cccc([N+](=O)[O-])c4)cs3)s2)cc1`, the figures for the inhibition at 1 µM in experiment [1] and in experiment [4] were 35.3% and 24.7%, respectively. Further, the inhibition at 20 µM in experiment [2] was 7.2%; in experiment [3], -2%.
Regarding `COc1cc(OC)c(-c2csc(-c3sc(Nc4ccc(S(N)(=O)=O)cc4)nc3N)n2)c(O)c1Cl`, the values for the inhibition at 1 µM in experiment [1] and in experiment [4] were 62.5% and 69.5%, respectively. Further, the inhibition at 20 µM in experiment [2] is 25.6%; in experiment [3] it was 29%.
The corresponding values for `CN(C)c1ccc(Nc2nc(N)c(-c3nc(-c4cccc(Br)c4)cs3)s2)cc1` are 30.1%, 29%, 14.2% and 17%.
